From ChEMBL document CHEMBL5634079, “Development of novel celastrol-ligustrazine hybrids as potent peroxiredoxin 1 inhibitors against lung cancer” (Eur J Med Chem, 2023)
Calls of active or inactive are those of the source. No cut-off for these calls is given here.

Experiments:
A549 [1] = experiment: Induction of apoptosis in human A549 cells assessed as increase in cleaved caspase-8 expression at 2 to 4 uM by Western blot analysis; assay type: functional, cell-based; conditions: dose 2-4 µM
[2] = Antiproliferative activity against human LTEP-a2 cells assessed as inhibition of cell growth incubated for 48 hrs by MTT assay; assay type: functional, cell-based; conditions: LTEP-A2, 48 h
Lewis lung carcinoma = experiment: Antitumor activity against mouse Lewis lung carcinoma cell line implanted in C57BL/6J mouse assessed as tumor cell agglutination at 0.5 to 1 mg/kg, ip administered every day for 19 days by H and E staining based analysis; assay type: functional, organism-based; conditions: dose 0.5-1 mg/kg, time 19.0 day
A549 [3] = experiment: Inhibition of cell migration in human A549 cells at 2 to 4 uM incubated for 24 hrs by inverted microscopic analysis; assay type: functional, cell-based; conditions: dose 2-4 µM
A549 [4] = experiment: Downregulation of PRDX2 level in human A549 cells at 2 to 4 uM by Western blot analysis; assay type: functional, cell-based; conditions: dose 2-4 µM
A549 [5] = experiment: Induction of apoptosis in human A549 cells assessed as viable cells at 4 uM incubated for 48 hrs by Annexin V-FITC and PI staining based flow cytometric analysis (reference value: 93.8%); assay type: functional; conditions: read-out: Activity
[6] = Antitumor activity against mouse Lewis lung carcinoma cell line implanted in C57BL/6J mouse assessed as tumor growth inhibition at 0.5 mg/kg, ip administered every day for 19 days; assay type: functional; conditions: 456 h, time 19 day, read-out: TGI
MDA-MB-231 = experiment: Antiproliferative activity against human MDA-MB-231 cells assessed as inhibition of cell growth incubated for 48 hrs by MTT assay; assay type: functional, cell-based; conditions: MDA-MB-231, 48 h
SK-HEP1 = experiment: Antiproliferative activity against human SK-HEP1 cells assessed as inhibition of cell growth incubated for 48 hrs by MTT assay; assay type: functional, cell-based; conditions: SK-HEP1, 48 h
[7] = molecular target: RAF proto-oncogene serine/threonine-protein kinase (Homo sapiens) (UniProt P04049); experiment: Inhibition of C-RAF phosphorylation in human A549 cells at 2 to 4 uM by Western blot analysis; assay type: cell-based; conditions: dose 2-4 µM
Sequence of RAF proto-oncogene serine/threonine-protein kinase (Homo sapiens) (P04049 whole entry): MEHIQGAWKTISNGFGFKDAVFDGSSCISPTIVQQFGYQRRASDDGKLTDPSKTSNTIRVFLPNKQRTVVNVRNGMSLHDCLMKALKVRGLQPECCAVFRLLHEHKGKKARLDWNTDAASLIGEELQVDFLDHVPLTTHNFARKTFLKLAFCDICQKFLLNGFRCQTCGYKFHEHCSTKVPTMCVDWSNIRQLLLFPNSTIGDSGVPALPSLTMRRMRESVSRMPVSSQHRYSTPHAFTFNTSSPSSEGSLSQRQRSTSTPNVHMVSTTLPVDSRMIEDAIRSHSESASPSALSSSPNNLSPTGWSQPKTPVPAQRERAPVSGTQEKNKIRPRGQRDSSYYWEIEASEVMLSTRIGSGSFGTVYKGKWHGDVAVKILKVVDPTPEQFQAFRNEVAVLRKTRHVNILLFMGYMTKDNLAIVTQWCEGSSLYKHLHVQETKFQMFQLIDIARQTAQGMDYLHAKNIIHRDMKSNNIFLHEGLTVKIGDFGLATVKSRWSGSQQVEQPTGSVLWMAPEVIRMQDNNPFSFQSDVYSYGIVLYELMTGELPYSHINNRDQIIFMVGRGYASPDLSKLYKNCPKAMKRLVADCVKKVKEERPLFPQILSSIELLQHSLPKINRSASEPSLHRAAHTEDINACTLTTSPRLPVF

[8] = Toxicity in C57BL/6J mouse implanted with mouse Lewis lung carcinoma cell line assessed as liver damage at 0.5 to 1 mg/kg, ip administered every day for 19 days; assay type: organism-based; conditions: in vivo, 456 h, dose 0.5-1 mg/kg, time 19 day
[9] = Toxicity in C57BL/6J mouse implanted with mouse Lewis lung carcinoma cell line assessed as decrease in body weight at 0.5 to 1 mg/kg, ip administered every day for 19 days; assay type: organism-based; conditions: in vivo, 456 h, dose 0.5-1 mg/kg, time 19 day
A549 [10] = experiment: Downregulation of PRDX4 level in human A549 cells at 2 to 4 uM by Western blot analysis; assay type: functional, cell-based; conditions: dose 2-4 µM

CC1=C(OC(=O)/C=C/c2ccccc2)C(=O)C=C2C1=CC=C1[C@@]2(C)CC[C@@]2(C)[C@@H]3C[C@](C)(C(=O)NCc4nc(C)c(C)nc4C)CC[C@]3(C)CC[C@]12C
Activity (A549 [1]): Active
IC50 [2]: 2930 nM
Activity (Lewis lung carcinoma): Active
inhibition (A549 [3]): Active
Activity (A549 [4]): Active
viability at 4 µM (A549 [5]): 45.1%
inhibition in vivo at 0.5 mg/kg [6]: 69.9%
IC50 (MDA-MB-231): 2670 nM
IC50 (SK-HEP1): 2420 nM
inhibition [7]: Active
Activity [8]: Non-Toxic
Activity [9]: Non-Toxic
Activity (A549 [10]): Active
